# Assay results as given in BindingDB's records for doi:10.1002/cbic.200900750 (University of Toronto, 2010).
# Biological target: T1, Alpha-mannosidase 2 (Drosophila melanogaster, UniProt Q24451)
# T1 sequence (Q24451 whole entry): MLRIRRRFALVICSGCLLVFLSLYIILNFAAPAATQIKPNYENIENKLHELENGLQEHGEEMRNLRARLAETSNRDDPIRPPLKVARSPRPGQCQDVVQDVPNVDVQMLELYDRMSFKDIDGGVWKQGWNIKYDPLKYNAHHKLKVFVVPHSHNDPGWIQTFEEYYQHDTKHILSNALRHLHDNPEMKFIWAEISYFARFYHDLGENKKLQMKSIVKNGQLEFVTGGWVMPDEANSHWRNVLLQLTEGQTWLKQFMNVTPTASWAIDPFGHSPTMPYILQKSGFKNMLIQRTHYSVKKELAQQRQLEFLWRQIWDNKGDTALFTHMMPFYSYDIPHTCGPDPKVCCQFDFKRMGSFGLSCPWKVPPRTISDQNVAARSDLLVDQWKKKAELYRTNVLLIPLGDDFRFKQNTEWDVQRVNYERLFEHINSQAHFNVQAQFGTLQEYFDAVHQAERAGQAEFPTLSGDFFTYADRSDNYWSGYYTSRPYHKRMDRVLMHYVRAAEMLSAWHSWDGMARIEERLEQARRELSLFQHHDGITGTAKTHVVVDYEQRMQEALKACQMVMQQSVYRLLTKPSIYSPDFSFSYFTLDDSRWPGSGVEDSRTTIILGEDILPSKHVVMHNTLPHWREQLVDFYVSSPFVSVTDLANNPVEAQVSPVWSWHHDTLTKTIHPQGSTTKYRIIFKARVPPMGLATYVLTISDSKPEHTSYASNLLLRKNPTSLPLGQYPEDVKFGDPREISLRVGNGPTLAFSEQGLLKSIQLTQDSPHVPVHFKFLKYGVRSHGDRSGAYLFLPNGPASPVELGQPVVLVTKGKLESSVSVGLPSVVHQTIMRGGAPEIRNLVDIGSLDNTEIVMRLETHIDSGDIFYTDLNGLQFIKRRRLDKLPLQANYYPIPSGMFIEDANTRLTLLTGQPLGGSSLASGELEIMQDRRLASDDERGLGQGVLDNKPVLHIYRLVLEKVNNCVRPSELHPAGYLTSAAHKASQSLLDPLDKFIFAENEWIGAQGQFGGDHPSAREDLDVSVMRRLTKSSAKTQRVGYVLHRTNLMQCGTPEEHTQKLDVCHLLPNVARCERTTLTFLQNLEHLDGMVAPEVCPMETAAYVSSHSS
# Test: Inhibition Assay
# Conditions: pH 5.75; 25 °C
Structure (SMILES),IC50 [nM],Ki [nM]
O[C@H]1[C@H]2[C@H](O)CCCN2C[C@H]1O [(-)-swainsonine],37,3
"O=C(C[C@H]1CC[C@@H](O)C2[C@H](O)[C@H](O)CN21)c1ccccc1 (stereo not given in full) [Swainsonine derivative, 2]",30,–
"Cc1ccc(C(=O)C[C@H]2CC[C@@H](O)C3[C@H](O)[C@H](O)CN32)cc1 (stereo not given in full) [Swainsonine derivative, 3]",29,–
"CC(C)(C)c1ccc(C(=O)C[C@H]2CC[C@@H](O)C3[C@H](O)[C@H](O)CN32)cc1 (stereo not given in full) [Swainsonine derivative, 4]",29,–
